“And” between values parts separate entries of the source, which are not always exact repeats. Identical values can stand only once.
Tested on: BEAS-2B
Assay: Comprehensive gene expression analysis with Whole Human Genome DNA microarray after EP treatment
Assay type: cell-based
Procedure: Cells of the established normal human airway epithelial cell line BEAS-2B were used in the experiment. These cells were expansively cultured in 10% FBS RPMI-1640, and seeded at a density of 1×10^5/cm^2 on a 24-well plate. After 24 hours 0.1% FBS RPMI-1640 was substituted, and EP was administered to a final concentration of 0 or 1 mM (n=4). After 24 hours, the cells were used as the DNA microarray samples. RNA was extracted using a QIAGEN RNeasy Mini Kit. The DNA microarray test was performed using a Whole Human Genome DNA microarray 4×44K (Agilent), and the necessary labeling reagents and the like for the DNA microarray test were all from Agilent. The DNA microarray test data were analyzed statistically with GeneSpring (Agilent) dedicated analysis software, and gene function analysis (Gene Ontology (GO) analysis) was performed based on differential expression. The purpose of the GO analysis is to determine stochastically the degree to which gene sets with statistically significant differential expression correspond to known functional classification gene sets. […] The p-value is calculated according to the following formula.

[1] = probe A_23_P30122, NM_000586, EP vs control
[2] = probe A_23_P34804, 1 mM EP, 24 h
[3] = probe A_23_P37736, 1 mM EP, 24 h
[4] = probe A_23_P40453, NM_001236, EP vs control
[5] = probe A_23_P45133, NM_27087, EP vs control
[6] = probe A_23_P48740, NM_013989, EP vs control
[7] = probe A_23_P51361, NM_175852, EP vs control
[8] = probe A_23_P53467, 1 mM EP, 24 h
[9] = probe A_23_P54144, 1 mM EP, 24 h
[10] = probe A_23_P55544, 1 mM EP, 24 h
[11] = probe A_23_P56922, 1 mM EP, 24 h
[12] = probe A_23_P56933, 1 mM EP, 24 h
[13] = probe A_23_P58180, NM_207352, EP vs control
[14] = probe A_23_P62959, 1 mM EP, 24 h
[15] = probe A_23_P63898, 1 mM EP, 24 h
[16] = probe A_23_P64129, NM_006410, EP vs control
[17] = probe A_23_P64129, 1 mM EP, 24 h
[18] = probe A_23_P67169, NM_000641, EP vs control
[19] = probe A_23_P68487, NM_001719, EP vs control
[20] = probe A_23_P69030, 1 mM EP, 24 h
[21] = probe A_23_P70398, NM_001025370, EP vs control
[22] = probe A_23_P72096, NM_000575, EP vs control
[23] = probe A_23_P72096, 1 mM EP, 24 h
[24] = probe A_23_P72285, 1 mM EP, 24 h
[25] = probe A_23_P74081, 1 mM EP, 24 h
[26] = probe A_23_P74380, 1 mM EP, 24 h
[27] = probe A_23_P76078, NM_016584, EP vs control
[28] = probe A_23_P81805, NM_001025366, EP vs control
[29] = probe A_23_P82550, 1 mM EP, 24 h
[30] = probe A_23_P87560, 1 mM EP, 24 h
[31] = probe A_23_P88404, 1 mM EP, 24 h
[32] = probe A_23_P88589, 1 mM EP, 24 h
[33] = probe A_23_P89550, 1 mM EP, 24 h
[34] = probe A_23_P89835, 1 mM EP, 24 h
[35] = probe A_23_P90601, NM_182915, EP vs control
[36] = probe A_23_P91504, 1 mM EP, 24 h

In the case of `NCCOP(=O)(O)O` [EP, Ethanolamine phosphate], the “BDH1 gene expression, log2 [ratio]” value (probe A_23_P29754, NM_203314, EP vs control) is reported as 0.548, the “IL2 gene expression, R* ratio to control” value [1] is reported as 0.537 times and the “IL2 gene expression, log2 [ratio]” value [1] is reported as −0.898. For the same compound, the “NTRK1 expression R: Ratio to control” value [2] was 0.261 times, the “NTRK1 expression log2 [ratio]” value [2] was −1.936 and the “TNFRSF17 expression R*: Ratio to control” value [3] was 2.525 times. The “TNFRSF17 expression log2 [ratio]” value [3] was 1.336, the “CBR3 gene expression, R* ratio to control” value [4] was 1.406 times and the “CBR3 gene expression, log2 [ratio]” value [4] was 0.491. The “CSF1 gene expression, R* ratio to control” value [5] was 0.602 times, the “CSF1 gene expression, log2 [ratio]” value [5] was −0.732 and the “DIO2 gene expression, R* ratio to control” value [6] was 1.694 times. The “DIO2 gene expression, log2 [ratio]” value [6] was 0.761, the “TXLNA gene expression, R* ratio to control” value [7] was 0.560 times and the “TXLNA gene expression, log2 [ratio]” value [7] was −0.837. The “IKBIP expression R*: Ratio to control” value [8] was 0.626 times, the “IKBIP expression log2 [ratio]” value [8] was −0.675 and the “BMP4 expression R*: Ratio to control” value [9] was 1.820 times. The “BMP4 expression log2 [ratio]” value [9] was 0.864, the “CCBE1 expression R*: Ratio to control” value [10] was 1.755 times and the “CCBE1 expression log2 [ratio]” value [10] was 0.811. For the same compound, the “HSPE1 expression R*: Ratio to control” value [11] was 1.531 times, the “HSPE1 expression log2 [ratio]” value [11] was 0.615 and the “RTN4 expression R*: Ratio to control” value [12] was 1.510 times. The “RTN4 expression log2 [ratio]” value [12] was 0.594, the “CYP4V2 gene expression, R* ratio to control” value [13] was 2.178 times and the “CYP4V2 gene expression, log2 [ratio]” value [13] was 1.123. The “PHLDA3 expression R: Ratio to control” value [14] was 0.271 times, the “PHLDA3 expression log2 [ratio]” value [14] was −1.884 and the “FAS expression R*: Ratio to control” value [15] was 0.364 times. For the same compound, the “FAS expression log2 [ratio]” value [15] was −1.457, the “HTATIP2 gene expression, R* ratio to control” value [16] was 1.735 times and the “HTATIP2 gene expression, log2 [ratio]” value [16] was 0.795. The “HTATIP2 expression R*: Ratio to control” value [17] was 1.735 times, the “HTATIP2 expression log2 [ratio]” value [17] was 0.795 and the “IL11 gene expression, R* ratio to control” value [18] was 0.358 times. For the same compound, the “IL11 gene expression, log2 [ratio]” value [18] was −1.482, the “BMP7 gene expression, R* ratio to control” value [19] was 0.136 times and the “BMP7 gene expression, log2 [ratio]” value [19] was −2.883. The “COL8A1 expression R*: Ratio to control” value [20] was 1.999 times, the “COL8A1 expression log2 [ratio]” value [20] was 0.999 and the “VEGFA gene expression, R* ratio to control” value [21] was 0.501 times. The “VEGFA gene expression, log2 [ratio]” value [21] was −0.997, the “IL1A gene expression, R* ratio to control” value [22] was 0.216 times and the “IL1A gene expression, log2 [ratio]” value [22] was −2.211. For the same compound, the “IL1A expression R*: Ratio to control” value [23] was 0.216 times, the “IL1A expression log2 [ratio]” value [23] was −2.211 and the “YWHAE expression R*: Ratio to control” value [24] was 1.529 times. For the same compound, the “YWHAE expression log2 [ratio]” value [24] was 0.813 and 0.613, the “TP73 expression R*: Ratio to control” value [25] was 0.557 times and the “TP73 expression log2 [ratio]” value [25] was −0.843. For the same compound, the “WARS2 expression R*: Ratio to control” value [26] was 1.594 times, the “WARS2 expression log2 [ratio]” value [26] was 0.673 and the “IL23A gene expression, R* ratio to control” value [27] was 0.508 times. For the same compound, the “IL23A gene expression, log2 [ratio]” value [27] was −0.977, the “VEGFA gene expression, R* ratio to control” value [28] was 0.611 times and the “VEGFA gene expression, log2 [ratio]” value [28] was −0.710. For the same compound, the “STK17A expression R*: Ratio to control” value [29] was 0.623 times, the “STK17A expression log2 [ratio]” value [29] was −0.683 and the “BTG1 expression R*: Ratio to control” value [30] was 0.41B. The “BTG1 expression log2 [ratio]” value [30] was −1.265, the “TGFB3 expression R*: Ratio to control” value [31] was 0.590 times and the “TGFB3 expression log2 [ratio]” value [31] was −0.761. The “NR2F2 expression R*: Ratio to control” value [32] was 1.662 times, the “NR2F2 expression log2 [ratio]” value [32] was 0.733 and the “NLRP1 expression R*: Ratio to control” value [33] was 0.483 times. The “NLRP1 expression log2 [ratio]” value [33] was −1.048, the “MAPRE2 expression R*: Ratio to control” value [34] was 1.538 times and the “MAPRE2 expression log2 [ratio]” value [34] was 0.621. The “STEAP3 gene expression, R* ratio to control” value [35] was 2.194 times, the “STEAP3 gene expression, log2 [ratio]” value [35] was 1.134 and the “ITSN1 expression R*: Ratio to control” value [36] was 3.487 times. The “ITSN1 expression log2 [ratio]” value [36] was 1.802 and the “CIDEC expression R*: Ratio to control” value (probe A_23_P92025, 1 mM EP, 24 h) was 0.593 times.

From patent publication US20150164762A1, “USE OF ETHANOLAMINE PHOSPHATE” (priority 2012, published 2015)
